Measured values from publication PMC10092844, “Inhibition profile of trifludimoxazin towards PPO2 target site mutations” (Pest Management Science, 2022).
Where two headings read alike, the source gives them in different places.

Assays:
PPO2 wild-type = PPO2 wild-type (Amaranthus tuberculatus, UniProt Q0NZW9); assay: in vitro inhibition assay, recombinant PPO2 enzyme; format: biochemical
E. coli hemG strain = assay: E. coli hemG growth assay (strain sensitivity); format: cell-based, Escherichia coli; conditions: data not shown; probably impaired uptake or hydrolysis
[1] = biological target: T1, PPO2 wild-type in Escherichia coli hemG (Amaranthus tuberculatus, UniProt Q0NZW9); format: cell-based; conditions: read-out: IC50 (E. coli hemG growth)
T1 sequence (Q0NZW9 31-534): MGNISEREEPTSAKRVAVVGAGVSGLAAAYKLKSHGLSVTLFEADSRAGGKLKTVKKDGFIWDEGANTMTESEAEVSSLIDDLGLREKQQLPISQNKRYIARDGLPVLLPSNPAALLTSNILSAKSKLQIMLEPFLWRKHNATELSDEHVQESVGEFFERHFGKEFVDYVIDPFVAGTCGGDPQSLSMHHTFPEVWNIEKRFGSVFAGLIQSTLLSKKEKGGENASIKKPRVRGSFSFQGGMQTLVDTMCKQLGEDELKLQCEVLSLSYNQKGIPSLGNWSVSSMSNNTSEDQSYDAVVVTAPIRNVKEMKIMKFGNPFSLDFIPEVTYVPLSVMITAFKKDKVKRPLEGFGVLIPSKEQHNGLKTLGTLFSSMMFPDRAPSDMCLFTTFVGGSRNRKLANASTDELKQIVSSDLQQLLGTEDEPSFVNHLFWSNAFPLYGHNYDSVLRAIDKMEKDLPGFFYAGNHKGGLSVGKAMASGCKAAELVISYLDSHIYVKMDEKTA

[2] = biological target: T2, PPO2 ΔG210 in Escherichia coli hemG (Amaranthus tuberculatus, UniProt Q0NZW9, DEL210-210, cells depend on it); format: cell-based; conditions: read-out: IC50 (E. coli hemG growth)
T2 sequence (Q0NZW9 with tags, fused parts or gaps DEL210-210): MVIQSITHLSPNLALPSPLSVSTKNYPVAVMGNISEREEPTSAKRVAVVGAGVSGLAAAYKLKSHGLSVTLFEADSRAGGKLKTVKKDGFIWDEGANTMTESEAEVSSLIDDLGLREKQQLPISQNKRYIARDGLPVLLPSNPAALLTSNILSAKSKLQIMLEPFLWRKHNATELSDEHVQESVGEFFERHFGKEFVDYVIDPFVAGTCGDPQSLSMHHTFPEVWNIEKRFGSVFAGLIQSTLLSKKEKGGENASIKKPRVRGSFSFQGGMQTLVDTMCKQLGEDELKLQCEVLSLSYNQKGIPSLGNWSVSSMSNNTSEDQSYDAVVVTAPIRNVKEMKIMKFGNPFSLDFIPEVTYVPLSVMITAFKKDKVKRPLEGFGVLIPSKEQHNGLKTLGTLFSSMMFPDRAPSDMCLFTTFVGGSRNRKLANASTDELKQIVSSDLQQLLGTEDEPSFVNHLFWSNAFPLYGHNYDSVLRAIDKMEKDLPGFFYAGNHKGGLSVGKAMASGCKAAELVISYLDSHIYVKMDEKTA

[3] = test system: T1 35S::AMATU PPO2 R128A ΔG210 Arabidopsis lines; assay: herbicide treatment of transgenic Arabidopsis T1 lines; format: in vivo, Arabidopsis thaliana; conditions: foliar-applied 2×, 1×, 0.5× field dose, 7 days after treatment
[4] = test system: T1 35S::AMATU PPO2 R128M ΔG210 Arabidopsis lines; assay: as above; format: in vivo, Arabidopsis thaliana; conditions: foliar-applied 2×, 1×, 0.5× field dose, 7 days after treatment
[5] = test system: T1 35S::AMATU PPO2 R128T ΔG210 Arabidopsis lines; assay: as above; format: in vivo, Arabidopsis thaliana; conditions: foliar-applied 2×, 1×, 0.5× field dose, 7 days after treatment
[6] = test system: T1 35S::AMATU PPO2 R128I ΔG210 Arabidopsis lines; assay: as above; format: in vivo, Arabidopsis thaliana; conditions: foliar-applied 2×, 1×, 0.5× field dose, 7 days after treatment
[7] = test system: T1 35S::AMATU PPO2 R128N ΔG210 Arabidopsis lines; assay: as above; format: in vivo, Arabidopsis thaliana; conditions: foliar-applied 2×, 1×, 0.5× field dose, 7 days after treatment
[8] = test system: PPO1 enzyme carrying A212T mutation; design: method as in PMID 31788953; conditions: cited from earlier work
[9] = Wild-type PPO2, recombinant protein activity in vitro

SMILES | IC50 (PPO2 wild-type; [9]) [nM] | sensitivity of E. coli hemG strain (E. coli hemG strain) | IC50 [1] [nM] | IC50 [2] [nM] | IC50 (PPO2 wild-type; read-out: IC50) [nM] | herbicide efficacy, visual assessment of plant growth [3] | herbicide efficacy, visual assessment of plant growth [4] | IC50 (PPO2 wild-type; Wild-type PPO2, recombinant protein activity in vitro, read-out: IC50) [nM] | herbicide efficacy, visual assessment of plant growth [5] | herbicide efficacy, visual assessment of plant growth [6] | herbicide efficacy, visual assessment of plant growth [7] | inhibition of PPO1 A212T enzyme [8]
CS(=O)(=O)NC(=O)c1cc(Oc2ccc(C(F)(F)F)cc2Cl)ccc1[N+](=O)[O-] [Fomesafen, fomesafen] | 7.13 | not sensitive |  |  |  |  |  |  |  |  |  | 
CCOC(=O)C(C)OC(=O)c1cc(Oc2ccc(C(F)(F)F)cc2Cl)ccc1[N+](=O)[O-] (stereo not shown) [Lactofen, lactofen] | 0.415 |  | 62.4 | 357 |  |  |  |  |  |  |  | 
CC(C)N(C)S(=O)(=O)NC(=O)c1cc(-n2c(=O)cc(C(F)(F)F)n(C)c2=O)c(F)cc1Cl [Saflufenacil, saflufenacil] |  |  | 31.9 | 2120 | 1.89 | two T1 lines expressing R128A ΔG210 showed significant resistance at each applied rate | few T1 plants showed persistent growth with saflufenacil at the 2× and 0.5× rate |  |  |  |  | 
C#CCN1C(=O)C(F)(F)Oc2cc(F)c(-n3c(=O)n(C)c(=S)n(C)c3=O)cc21 [Trifludimoxazin, trifludimoxazin] |  |  | 0.927 | 1.18 |  | reduced plant growth at 2×, 1× and 0.5× the rate of all five T1 plants | reduced by both trifludimoxazin and saflufenacil at 1× | 0.245 | more reduced by trifludimoxazin than saflufenacil at each rate | more controlled by trifludimoxazin than saflufenacil at all the used rates | more reduced by trifludimoxazin than saflufenacil at each rate | fully inhibit
